In experiment [1] the target is T1, α5β1 integrin (Homo sapiens, UniProt P05556+P08648).
T1 construct: The α5β1 and αvβ3 integrins were isolated from human placenta; from tissue; host or cells: human placenta
In words: phage attachment assay: inhibition of CRGDCL-phage binding to α5β1 integrin. Conditions: FIG. 1. How it is done: (§1) The α5β1 and αvβ3 integrins were isolated from human placenta as described in Pytela et al., PNAS USA.
CRGDCL-displaying phage were incubated for 1 hour in the presence of various concentrations of the peptides to be tested in microtiter wells coated with the α5β1 integrin. […] Specific binding was quantitated by added K9lkan bacteria directly to the wells and growing the bacteria overnight at room temperature in the presence of tetracycline as described in Smith and Scott, Meth. Enzymol. […] The data represent means from duplicate wells.

Experiment [2] deals with T1, α5β1 integrin. In words: inhibition of ELRGDGW-containing phage binding to α5β1 integrin. The conditions noted are these: 1 hour at room temperature. How it is done: Phage carrying the insert ELRGDGW (SEQ ID NO 24) were added together with various concentrations of the cyclic peptide […] (SEQ ID NO:03) into microliter wells coated with the α5β1 integrin and incubated for 1 hour at room temperature. The 15 phage which remained bound to the wells were quantitated by growing the K9lkan bacteria in the wells overnight at room temperature in the presence of tetracycline. The absorbance that indicates the growth of bacteria infected with phage was measured at 600 nm with an ELISA reader.

For a further experiment, the target named is T2, α5β1 (UniProt G3HZ55+P08648).
T2 construct: expressed in transfected cells; host or cells: CHO B2/α27 clone
T2 sequence (P08648 42-894 limits assumed): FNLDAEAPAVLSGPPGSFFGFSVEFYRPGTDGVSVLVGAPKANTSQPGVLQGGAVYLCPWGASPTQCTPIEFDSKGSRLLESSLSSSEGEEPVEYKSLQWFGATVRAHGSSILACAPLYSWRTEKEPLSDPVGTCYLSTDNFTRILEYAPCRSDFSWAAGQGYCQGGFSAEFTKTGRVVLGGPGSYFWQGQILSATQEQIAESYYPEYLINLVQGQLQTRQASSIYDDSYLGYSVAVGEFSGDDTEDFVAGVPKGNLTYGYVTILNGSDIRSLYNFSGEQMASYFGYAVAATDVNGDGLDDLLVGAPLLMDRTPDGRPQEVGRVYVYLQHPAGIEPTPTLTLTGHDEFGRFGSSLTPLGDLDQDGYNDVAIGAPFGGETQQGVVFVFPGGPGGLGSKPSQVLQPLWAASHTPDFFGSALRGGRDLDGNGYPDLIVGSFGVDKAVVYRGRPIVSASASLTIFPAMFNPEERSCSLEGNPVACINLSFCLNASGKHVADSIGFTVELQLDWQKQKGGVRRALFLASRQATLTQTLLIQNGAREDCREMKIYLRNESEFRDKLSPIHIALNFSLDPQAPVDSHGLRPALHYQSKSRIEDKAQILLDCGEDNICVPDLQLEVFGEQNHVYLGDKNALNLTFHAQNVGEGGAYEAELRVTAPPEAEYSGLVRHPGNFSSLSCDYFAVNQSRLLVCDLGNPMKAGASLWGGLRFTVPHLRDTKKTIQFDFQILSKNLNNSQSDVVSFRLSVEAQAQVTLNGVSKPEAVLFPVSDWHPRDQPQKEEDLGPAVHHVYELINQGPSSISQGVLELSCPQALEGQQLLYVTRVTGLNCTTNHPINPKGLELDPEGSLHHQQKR
T2 sequence (P08648 895-1049 limits assumed): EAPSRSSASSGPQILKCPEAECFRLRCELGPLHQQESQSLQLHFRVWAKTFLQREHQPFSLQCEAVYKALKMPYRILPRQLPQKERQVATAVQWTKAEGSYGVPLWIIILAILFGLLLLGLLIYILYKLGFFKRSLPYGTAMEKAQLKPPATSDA
T2 sequence (G3HZ55 21-798): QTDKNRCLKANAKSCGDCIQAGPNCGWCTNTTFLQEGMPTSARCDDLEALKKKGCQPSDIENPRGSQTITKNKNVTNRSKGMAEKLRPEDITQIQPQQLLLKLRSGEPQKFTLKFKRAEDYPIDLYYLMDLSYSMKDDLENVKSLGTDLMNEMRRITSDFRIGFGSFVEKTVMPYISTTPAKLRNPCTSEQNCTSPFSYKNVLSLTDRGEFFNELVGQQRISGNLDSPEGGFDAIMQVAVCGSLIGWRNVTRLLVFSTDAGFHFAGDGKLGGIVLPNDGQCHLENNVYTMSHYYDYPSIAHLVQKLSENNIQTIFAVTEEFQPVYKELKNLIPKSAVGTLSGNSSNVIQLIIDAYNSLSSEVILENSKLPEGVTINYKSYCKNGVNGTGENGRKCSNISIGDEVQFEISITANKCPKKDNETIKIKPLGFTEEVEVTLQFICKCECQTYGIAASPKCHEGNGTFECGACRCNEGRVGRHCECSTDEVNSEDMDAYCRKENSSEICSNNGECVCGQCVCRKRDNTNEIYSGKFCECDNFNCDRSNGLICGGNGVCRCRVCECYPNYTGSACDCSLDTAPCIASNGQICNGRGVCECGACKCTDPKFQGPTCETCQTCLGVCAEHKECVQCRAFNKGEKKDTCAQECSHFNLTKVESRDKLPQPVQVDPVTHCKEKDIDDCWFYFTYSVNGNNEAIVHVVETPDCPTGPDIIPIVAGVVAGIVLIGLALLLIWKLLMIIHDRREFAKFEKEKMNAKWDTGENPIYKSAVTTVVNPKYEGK
The experiment is described as follows: cell attachment assay: α5-transfected CHO cells B2/α27 to fibronectin. In kind it is cell-based. The conditions noted are these: FIG. 4A, read-out: IC50, inhibition of α5β1-mediated cell attachment to fibronectin. From the text:
(§2) CHO cell lines expressing α5β1 (the B2/α27 clone, as described in Bauer et al., J. Cell. Biol. 116:477-487 (1992)), or CHO cell lines expressing αvβ1 (B2/v7 clone, described in Zhang et al., J. Cell. Biol. 122:235-242 (1993)) were used in these assays. Cell lines expressing fibronectin-binding integrins were used to determine peptide activities against these integrins in the cell attachment assay described in Ruoslahti et al. Methods Enzymol. 144:803-831 […]. The vitronectin-binding integrins αvβ5 and αvβ3 were assayed using the cell lines HT29 and IMR90, respectively, which were described in Koivunen et al. J. Biol. Chem. 268:205-210 (1993).
(§3) Human plasma fibronectin and vitronectin were iodinated as described in Morla and Ruoslahti, J. Cell Biol. 118:421-429 (1992), which is incorporated herein by reference. […] The input ell number was approximately 2×10^4 and attachment was quantitated by staining with 0.1% amido black.
(§4) Selected peptides were tested for inhibitory activity in cell attachment assays. The assays are described in detail in the Example above. The cells used in the various experiments were: (A) α5 -transfected CHO cells B2/α27 (α5β1); αv -transfectedCHO cells 32/v7 (αvβ1); (C) HT29 cells (αvβ5); (D) IMR90 cells (αvβ3). […]

Experiment [3] addresses T3, αvβ3 integrin (Homo sapiens, UniProt P05106+P06756).
T3 construct: The α5β1 and αvβ3 integrins were isolated from human placenta; from tissue; host or cells: human placenta
In words: inhibition of CRGDCL-phage binding to αvβ3. The conditions noted are these: means from duplicate wells.
Text: as §1
(§5) Selected peptides were studied for their ability to bind to the αvβ3 integrin by using integrin bound on anti-αv or anti-β3 antibody coating. Microliter wells were coated with β3 antibodies to bind specifically the αvβ3 integrin. […] The bound phage were eluted with low pH buffer and quantitated by infection of bacteria as described above. The IC50 values are means from duplicate wells. ND means not determined.

Experiment [4] concerns the target T3, αvβ3 integrin. In words: inhibition of NGRAHA-phage binding to αvβ3. Conditions: means from duplicate wells.
Text: as §1, §5

Another experiment relates to α5β1 and αvβ3 integrins. The experiment is described as follows: competitive binding assays for relative binding affinities of peptide motifs. On the set-up: species or system human. The conditions noted are these: for relative binding affinity class (in words): competitive binding assays.
Experiment [5] deals with T1, α5β1 integrin. In words: fibronectin binding assay: inhibition of 125I-labeled fibronectin binding to immobilized α5β1. The conditions noted are these: FIG. 2, FIG. 3. How it is done:
Microtiter wells were coated with anti-α5 specific antibody by incubating overnight at an antibody concentration of 10 μg/ml, followed by BSA. α5β1 integrin then was bound to α5specific antibody-coated wells by incubating 300 μl of a placental extract per well in TBS buffer containing 0.1 M octylglucoside, 1 mM CaCl2, 1 mM MnCl2 and proteinase inhibitors overnight at 4° C. according to Pytela et al., Methods Enzymol 144: 475-489 (1987), which is herein incorporated by reference. Alternatively, the α5β1 integrin was directly coated on plastic as described above. The wells were extensively washed with TBS containing 0.1% NP-40™. ^125 I-labeled fibronectin (100,000 cpm per well) was incubated in the presence of competing peptides for 1 hour at 25° C. in 100 μl volume of TBS containing 0.1% NP-40™ detergent and 1 mM MnCl 2. After repeated washing, the radioactivity remaining bound was quantitated with a gamma counter.
Next, three of these four peptides were compared for efficiencies in inhibiting binding of ^125 I-labeled fibronectin to immobilized α5β1, according to the fibronectin binding assay described in the Example above. Anti-α5 antibodies were used to tether α5β1 onto microliter wells. ^125 I-labeled fibronectin was incubated in the coated wells in the presence of competing peptides for 1 hour. After washing, the radioactivity that remained bound was determined. The data represent means from duplicate wells.

Experiment [6] concerns the target T3, αvβ3 integrin. The experiment is described as follows: binding of peptides to αvβ3 integrin bound on anti-αv or anti-β3 antibody coating. From the text: Selected peptides were studied for their ability to bind to the αvβ3 integrin by using integrin bound on anti-αv or anti-β3 antibody coating. Microliter wells were coated with β3 antibodies to bind specifically the αvβ3 integrin. The input of CRGDCL (SEQ ID NO:01)-containing phage and NGRAHA (SEQ ID NO:04)-containing phage were 2×10^12 and 5×10^12 TU per well, respectively. The bound phage were eluted with low pH buffer and quantitated by infection of bacteria as described above. The IC50 values are means from duplicate wells. ND means not determined.

The next experiment addresses T4, αvβ5 (Homo sapiens, UniProt P06756+P18084).
T4 construct: endogenous in cells; host or cells: HT29
In words: cell attachment assay: HT29 cells to vitronectin. In kind it is cell-based.
Text: as §2, §3, §4

Positions of bridges follow the written chain, without caps; N, C: chain ends. Residues, ends and D or L forms follow the SMILES beside them. No end group written: not given here.

T1 sequence (P08648 42-894 limits assumed): as the sequence (P08648 42-894 limits assumed) above
T1 sequence (P08648 895-1049 limits assumed): as the sequence (P08648 895-1049 limits assumed) above
T1 sequence (P05556 21-798): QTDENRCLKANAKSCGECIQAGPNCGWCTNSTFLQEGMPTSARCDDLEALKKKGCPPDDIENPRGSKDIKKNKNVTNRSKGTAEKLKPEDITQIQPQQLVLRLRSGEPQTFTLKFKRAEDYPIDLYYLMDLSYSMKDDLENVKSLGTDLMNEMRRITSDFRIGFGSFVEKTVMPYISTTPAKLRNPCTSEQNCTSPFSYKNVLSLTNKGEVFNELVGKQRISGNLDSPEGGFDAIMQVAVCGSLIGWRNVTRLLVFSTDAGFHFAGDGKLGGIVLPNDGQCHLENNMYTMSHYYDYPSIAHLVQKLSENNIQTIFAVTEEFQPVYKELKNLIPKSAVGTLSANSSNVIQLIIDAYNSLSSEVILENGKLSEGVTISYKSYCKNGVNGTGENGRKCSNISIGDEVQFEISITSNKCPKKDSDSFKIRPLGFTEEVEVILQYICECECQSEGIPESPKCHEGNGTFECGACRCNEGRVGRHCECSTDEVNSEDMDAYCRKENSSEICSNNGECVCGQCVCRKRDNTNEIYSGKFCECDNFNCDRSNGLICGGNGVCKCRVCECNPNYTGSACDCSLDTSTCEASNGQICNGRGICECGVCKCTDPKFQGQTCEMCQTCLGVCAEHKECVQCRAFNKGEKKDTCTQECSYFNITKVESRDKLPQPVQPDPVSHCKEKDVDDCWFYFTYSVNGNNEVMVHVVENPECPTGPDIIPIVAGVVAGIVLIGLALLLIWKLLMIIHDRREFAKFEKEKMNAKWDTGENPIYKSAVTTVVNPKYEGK
T3 sequence (P06756 31-889 limits assumed): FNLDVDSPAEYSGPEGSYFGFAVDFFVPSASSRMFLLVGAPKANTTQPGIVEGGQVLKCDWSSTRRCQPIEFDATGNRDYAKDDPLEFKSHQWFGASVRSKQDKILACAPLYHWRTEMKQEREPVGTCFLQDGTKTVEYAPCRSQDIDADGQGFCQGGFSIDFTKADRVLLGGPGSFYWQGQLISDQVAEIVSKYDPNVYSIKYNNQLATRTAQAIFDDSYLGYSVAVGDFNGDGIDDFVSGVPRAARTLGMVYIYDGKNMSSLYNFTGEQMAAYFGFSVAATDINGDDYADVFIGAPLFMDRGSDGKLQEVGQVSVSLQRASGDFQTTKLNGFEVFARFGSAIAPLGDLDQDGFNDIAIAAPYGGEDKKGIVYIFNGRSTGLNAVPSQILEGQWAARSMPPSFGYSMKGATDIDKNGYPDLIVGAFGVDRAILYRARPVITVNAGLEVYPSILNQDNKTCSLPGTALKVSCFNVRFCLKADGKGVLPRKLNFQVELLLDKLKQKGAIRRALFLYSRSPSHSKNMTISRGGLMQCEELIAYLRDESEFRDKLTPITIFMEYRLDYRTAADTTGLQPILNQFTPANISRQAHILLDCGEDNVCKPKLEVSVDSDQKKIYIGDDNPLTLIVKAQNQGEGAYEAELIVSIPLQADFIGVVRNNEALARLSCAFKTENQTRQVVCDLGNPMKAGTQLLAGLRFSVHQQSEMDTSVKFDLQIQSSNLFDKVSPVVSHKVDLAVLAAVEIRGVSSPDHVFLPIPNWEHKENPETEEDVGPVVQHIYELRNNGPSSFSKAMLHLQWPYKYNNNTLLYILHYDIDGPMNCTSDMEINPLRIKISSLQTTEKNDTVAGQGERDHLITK
T3 sequence (P06756 891-1048 limits assumed): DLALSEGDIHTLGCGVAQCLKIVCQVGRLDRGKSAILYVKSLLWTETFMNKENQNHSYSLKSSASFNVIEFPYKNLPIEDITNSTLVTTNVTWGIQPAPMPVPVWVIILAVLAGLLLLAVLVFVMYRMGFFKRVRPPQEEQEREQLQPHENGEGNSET
T3 sequence (P05106 27-788): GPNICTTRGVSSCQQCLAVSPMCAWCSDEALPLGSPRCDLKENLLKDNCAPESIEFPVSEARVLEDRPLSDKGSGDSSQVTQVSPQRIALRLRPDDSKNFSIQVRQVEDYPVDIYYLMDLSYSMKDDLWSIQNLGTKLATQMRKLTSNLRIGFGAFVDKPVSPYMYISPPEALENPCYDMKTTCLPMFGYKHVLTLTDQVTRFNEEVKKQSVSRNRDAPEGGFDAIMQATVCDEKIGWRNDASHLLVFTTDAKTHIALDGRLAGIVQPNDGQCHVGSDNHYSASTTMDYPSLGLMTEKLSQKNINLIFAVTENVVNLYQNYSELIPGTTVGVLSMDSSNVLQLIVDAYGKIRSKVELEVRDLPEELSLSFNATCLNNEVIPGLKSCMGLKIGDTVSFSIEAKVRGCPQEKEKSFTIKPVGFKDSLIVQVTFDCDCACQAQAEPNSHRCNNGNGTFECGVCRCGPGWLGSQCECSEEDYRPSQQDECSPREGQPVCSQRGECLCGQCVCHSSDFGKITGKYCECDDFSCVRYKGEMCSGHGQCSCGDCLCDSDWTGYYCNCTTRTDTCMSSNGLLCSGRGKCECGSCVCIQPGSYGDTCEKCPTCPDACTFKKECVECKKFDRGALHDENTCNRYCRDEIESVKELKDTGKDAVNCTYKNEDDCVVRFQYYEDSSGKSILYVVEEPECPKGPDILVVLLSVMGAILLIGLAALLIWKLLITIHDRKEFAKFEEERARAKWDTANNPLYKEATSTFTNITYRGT

`CC(C)C[C@H](NC(=O)[C@@H]1CSSC[C@H](NC(=O)[C@H](C)NC(=O)CN)C(=O)N[C@@H](CCCNC(=N)N)C(=O)NCC(=O)N[C@@H](CC(=O)O)C(=O)N1)C(=O)NCC(=O)N[C@@H](C)C(=O)O` [GAC*RGDC*LGA] (H-GACRGDCLGA-OH; disulfide 3-7): the IC50 on α5β1 integrin [1] (1 hour, means from duplicate wells, read-out: IC50 (half-maximal inhibitory concentration), inhibition of CRGDCL-phage binding to α5β1) is 0.02 µM; on α5β1 integrin [2], around 500 nM; on α5β1, 100 µM; at αvβ3 integrin [3], 0.1 µM.

The compound `N=C(N)NCCC[C@H](NC(=O)CNC(=O)[C@H](CC(=O)O)NC(=O)[C@@H](N)CO)C(=O)O` [SDGR, reference compound] (H-SDGR-OH) showed an IC50 on αvβ3 integrin [4] above 100 µM.

For the compound “CRGDC (disulfide 1-5 (inferred)) [cyclic peptide motif]”, in the experiment on α5β1 and αvβ3 integrins, the “relative binding affinity class (in words)” value was “High affinity”.

For the compound CRGDCL (disulfide 1-5 (inferred)), the “binding affinity compared with similar linear peptides, as judged by the IC50 value” at α5β1 and αvβ3 integrins (both α5β1 and αvβ3 integrins) was “about 10 times”. Further, in the experiment on α5β1 and αvβ3 integrins, the “relative binding affinity class (in words)” value is on record as “High affinity”. The “activity in inhibiting 125I-fibronectin binding to α5β1 (in words)” value with α5β1 integrin [5] is reported as “very effective”. Further, the “binding to αvβ3 (in words)” value with αvβ3 integrin [6] is recorded as “bound”.

Consider CVLNGRME, for which, in the experiment on α5β1 and αvβ3 integrins, the “relative binding affinity class (in words)” value is listed as “moderate affinities”.

For DGRAHA [DGRAHA], on αvβ3 integrin [4], the IC50 stood at 100 µM. The “IC50 against αvβ5 compared with the standard GRGDSP” value against αvβ5 is “equal to the standard GRGDSP”.

In the case of GATIRSVDGA, the IC50 on αvβ3 integrin [3] is around 100 µM.

As for NGRAHA [NGRAHA], the IC50 at α5β1 integrin [1] (CRGDCL-phage, α5β1, read-out: IC50 in the phage assay (unit inferred)) turned out to be 30 µM; on αvβ3 integrin [4], 30 µM; at αvβ3 integrin [3], 200 µM. Also, at α5β1 integrin [5], the “activity in inhibiting 125I-fibronectin binding to α5β1 (in words)” value is reported as “active”.

“SDGRAHS (SDGRAHA) [DGRAHA with a serine residue included at the amino terminus]”: the “activity in inhibiting 125I-fibronectin binding to α5β1 (in words)” value in the experiment with α5β1 integrin [5] was “essentially devoid of activity”.

On to SRRGDL [RGD peptide], for which the “binding to αvβ3 (in words)” value with αvβ3 integrin [6] is given as “bound”.
